Measurements taken from patent publication US8710010B2, “Peptides useful in the treatment and/or care of skin, mucous membranes, scalp and/or hair and their use in cosmetic or pharmaceutical compositions” (Lipotec, S.A., priority 2008, dated 2014).
Where a SMILES comes first, the peptide text is derived from it. [ ]: non-standard residue; d: D form. Dap = NC[C@H](N)C(=O)O

Key:
[1] = Scavenging assay of 4-hydroxy-2-nonenal; assay type: biochemical; settings: 2 mM peptide in 10 mM PBS mixed with equal volume of 100 μM aldehyde in acetonitrile, 37° C., 24 h, HPLC of remaining aldehyde
Method: Scavenging assay of 4-hydroxy-2-nonenal.
(§1) A solution was prepared from peptides in a 10 mM PBS buffer at a concentration of 2 mM, as well as a solution of the aldehyde in acetonitrile at a concentration of 100 μM. Equal volumes of peptide solutions and aldehyde were mixed and were left to react at 37° C. for 24 h. The scavenging efficiency of the RCS was measured by HPLC analysis of the remaining aldehyde content in the reaction mixture.

[2] = Scavenging assay of 2-nonenal; assay type: biochemical; settings: 2 mM peptide in 10 mM PBS mixed with equal volume of 100 μM aldehyde in acetonitrile, 37° C., 24 h, HPLC of remaining aldehyde
Method: Scavenging assay of 2-nonenal.
as §1, with “and” for “and were”

human keratinocytes = assay: Photoprotection efficiency in cultured human keratinocytes (solar simulation lamp, Neutral Red viability); assay type: cell-based; settings: 1 mg/ml peptide, viability compared with irradiated and non-irradiated control cells
Method: Testing the photoprotection efficiency of H-L-Dpr-D-Ala-L-Pro-L-His-OH, H-L-Dpr-D-Ala-L-Ala-L-His-OH and H-L-Dp- L-Ala-L-Pro-L-His-OH in cultured human keratinocytes.
Human keratinocytes were maintained in culture for 24 h on 96 well plates to form monolayers and the cells were pre-incubated in the dark with 1 mg/ml of H-L-Dpr-D-Ala-L-Pro-L-His-OH, H-L-Dpr-D-Ala-L-Ala-L-His-OH, H-L-Dpr-L-Ala-L-Pro-L-His-OH or phosphate buffered saline (control) for one hour at 37° C. and humidified air with 5% CO2. Subsequently, cells were irradiated with a solar simulation lamp (with an energy of 37 J/cm^2 at room temperature for 150 min in the case of H-L-Dpr-D-Ala-L-Pro-L-His-OH). A control plate was kept in the dark during the same time at room temperature. After the period of irradiation, the cell medium was replaced by a fresh medium and the cells were incubated for an additional 24 h.
Cell viability was determined by the Neutral Red dye, measuring the absorbance at 540 nm in a spectrophotometer.
The photoprotection efficiency was determined by comparing the viability obtained in cells treated with H-L-Dpr-D-Ala-L-Pro-L-His-OH, H-L-Dpr-D-Ala-L-Ala-L-His-OH or H-L-Dpr-L-Ala-L-Pro-L-His-OH on the response of irradiated and non-irradiated control cells.

[3] = tested on: Primary cultures of human fibroblasts; assay: Repair capacity of DNA degradation (UVB, alkaline comet assay); assay type: cell-based; settings: UVB 0.4 J/cm^2 30 s, versus intrinsic repair efficiency of the cells
Description: Testing the Repair Capacity of DNA Degradation
Primary cultures of human fibroblasts (10^5 cells/plate) were irradiated to 0.4 J/cm^2 UVB for 30 seconds. […]

[4] = tested on: Primary cultures of human melanocytes; assay: Protective capacity against DNA degradation (UVA, alkaline comet assay); assay type: cell-based; settings: 1.0 μg/mL for 2 h at 37° C., then UVA 1.0 J/cm^2, alkaline comet assay
Method: Test of the Protective Capacity of DNA Degradation
Primary cultures of human melanocytes (10^5 cells/plate) were treated with 1.0 μg/mL of H-L-Dpr-D-Ala-L-Pro-L-His-OH for 2 h at 37° C. Subsequently, the cultures were irradiated with UVA at 1.0 J/cm^2 for no longer than 3min at 4° C. and the extent of the damage induced to DNA was determined by alkaline comet assay [De Meo M., Laget M., Castegnaro M. and Dumenil G. (1991) “Genotoxic activity of potassium permanganate in acidic solutions” Mutat. Res 260:295-306].

[5] = Reduction of the odor emitted by aldehyde 2-nonenal (sniff test); settings: 0.05% peptide in phosphate buffer 10 mM pH 7-7.5 added to equal volume of 0.00089% 2-nonenal in acetonitrile, odor at time zero and 24 h, panel of 3 experts
Method: Reduction of the Odor Emitted by Aldehyde 2-nonenal
We evaluated the reduction of the odor given off by aldehyde 2-nonenal after the addition of a solution containing 0.05% of H-L-Dpr-L-Ala-L-Ala-L-His-OH through an olfactory test (“sniff test”) conducted by a panel of 3 independent experts.
We prepared a solution of 2-nonenal at 0.00089% in acetonitrile to which was added an equal volume of phosphate buffer 10 mM pH 7-7.5 or H-L-Dpr-L-Ala-L-Ala-L-His-OH to 0.05% in phosphate buffer 10 mM pH 7-7.5. We evaluated the odor intensity given off at time zero and 24 h after creating the mixture of aldehyde and peptide, performing the measurements in a room heated to 24° C. and with controlled humidity at 60% and statistically analyzed the values obtained using the Wilcoxon Matched Paired test.

Row | Compound | Scavenging % of HNE aldehyde [1] [%] | Scavenging % of NE aldehyde [2] [%] | also measured
1 | H-L-Dpr-D-Ala-L-Pro-L-His-NH2 | 98.3 | 98.1 | 
2 | H-L-Dpr-D-Ala-L-Asp-L-His-OH | 98.8 | 95.4 | 
3 | H-L-Dpr-L-Ala-L-Asp-L-His-OH | 97.6 |  | 
4 | H-L-Dpr-L-Ala-D-Asp-L-His-OH | 94.1 | 83.1 | 
5 | H-L-Dpr-L-Ala-L-Asn-L-His-OH |  | 73.1 | 
6 | H-L-Dpr-L-Ala-L-Pro-L-His-NH2 | 96.3 | 88.7 | 
7 | NCCCC[C@H](NC(=O)[C@H](Cc1c[nH]cn1)NC(=O)CN)C(=O)O [GHK, glycyl-histidyl-lysine, reference compound] (H-Gly-His-Lys-OH) | 82.1 | 24.7 | 
8 | H-L-Dpr-L-Ala-L-Glu-L-His-NH2 |  | 92.6 | 
9 | NCCC(=O)N[C@@H](Cc1cnc[nH]1)C(=O)O [Carnosine, carnosine, reference compound] | 89.4 | 70.3 | 
10 | C[C@H](NC(=O)[C@@H](N)CN)C(=O)N1CCC[C@H]1C(=O)N[C@@H](Cc1c[nH]cn1)C(=O)O [H-L-Dpr-L-Ala-L-Pro-L-His-OH] (H-[Dap]APH-OH) | 93.9 | 76.7 | PHOTOPROTECTION EFFICIENCY (human keratinocytes): 56.8%
11 | C[C@@H](NC(=O)[C@@H](N)CN)C(=O)N1CCC[C@H]1C(=O)N[C@@H](Cc1c[nH]cn1)C(=O)O [H-L-Dpr-D-Ala-L-Pro-L-His-OH] (H-[Dap][dA]PH-OH) | 98.0 | 97.0 | PHOTOPROTECTION EFFICIENCY (human keratinocytes): 92.0%; REPAIR EFFICIENCY of DNA degradation ([3]; then 0.25 μg/mL for 3 h at 37° C.): 120%; REPAIR EFFICIENCY of DNA degradation ([3]; then 0.5 μg/mL for 3 h at 37° C.): 170%; PROTECTIVE EFFICIENCY against DNA degradation [4]: 36.1%
12 | H-L-Dpr-L-Ala-L-Ala-L-His-OH |  | 74.6 | reduction of the odor given off by 2-nonenal [5]: 15.6%
13 | H-L-Dpr-D-Ala-L-Ala-L-His-NH2 | 97.7 | 98.2 | 
14 | H-L-Dpr-D-Ala-L-Glu-L-His-NH2 | 97.7 | 95.2 | 
15 | H-L-Dpr-D-Ala-L-Glu-L-His-OH |  | 93.2 | 
16 | H-L-Dpr-L-Ala-L-Ala-L-His-NH2 | 96.0 | 94.1 | 
17 | H-L-Dpr-L-Ala-L-Glu-L-His-OH |  | 75.6 | 
18 | H-L-Dpr-L-Ala-L-Asp-L-His-NH2 | 97.5 | 94.5 | 
19 | H-L-Dpr-L-Ala-L-Asp-D-His-OH | 86.3 | 66.5 | 
20 | H-L-Dpr-L-Ala-L-Asn-L-His-NH2 |  | 95.3 | 
21 | H-L-Dpr-D-AIa-L-Asn-L-His-NH2 |  | 98.9 | 
